The results in this text go back to patent US7902191B2, “Histamine H3 receptor antagonists, preparation and therapeutic uses” (Eli Lilly and Company, priority 2004, dated 2011).

For test [1], the target named is T1, H3R membranes (H3R8-expressing HEK293 cell line) (Homo sapiens, UniProt Q9Y5N1).
T1 construct: expressed in transfected cells
As to the kind of experiment: [35S] GTP γ[S] binding assay, antagonist activity in the presence of agonist R(−)alpha methylhistamine. It is filed as biochemical. Conditions: results given below the [35S]GTPγS assay. On the procedure: Membranes isolated as described in (Preparation of Histamine Receptor Subtype Membranes) were used in a [35S]GTPχS functional assay. Binding of [35S]GTPχS to membranes indicates agonist activity. Compounds of the invention of Formula I or II or III were tested for their ability to inhibit binding in the presence of agonists. Alternately, the same transfected cell lines were used for a cAMP assay wherein H3R agonists inhibited forskolin-activated synthesis of cAMP. Compounds of Formula I or II or III were tested for their ability to permit forskolin-stimulated cAMP synthesis in the presence of agonist.
cDNA for the human histamine 3 receptor was cloned and expressed as described in (A. Preparation H1R membranes), above. Transfected cells were selected using G418 ([…]), grown, and tested for histamine binding by the SPA described above. For total binding, cells were assayed in a SPA reaction described above containing 50 mM Tris-HCL (assay buffer), pH 7.6, 1 mg wheat germ agglutinin SPA beads (Amersham Pharmacia Biotech, #RPNQ0001), and 1 nM (3H)-n-alpha-methylhistamine (NEN, NET1027) (total volume per well=200 μl). Thioperimide was added to determine non-specific binding. […]
Antagonist activity of selected compounds was tested for inhibition of [35S] […] Plates were counted in Wallac Trilux 1450 Microbeta scintillation counter for 1 minute. […]
For orientation: Binding of GTPγS marks nucleotide exchange on a G protein.

Test [2] concerns the target T2, H3R (human histamine 3 receptor) (Homo sapiens, UniProt Q9Y5N1).
T2 construct: expressed in transfected cells
The test can be described thus: competitive inhibition SPA binding assay, H3R, (3H)-n-alpha-methylhistamine. The note with it: selectivity panel. The source says:
The inventive compounds can readily be evaluated by using a competitive inhibition Scintillation Proximity Assay (SPA) based on a H3R binding assay using [3H] α methylhistamine as ligand. Stable cell lines, including but not limited to HEK can be transfected with cDNA coding for H3R to prepare membranes used for the binding assay. The technique is illustrated below (Preparation of Histamine Receptor Subtype Membranes) for the histamine receptor subtypes.
cDNA for the human histamine 3 receptor was cloned and expressed as described in (A. Preparation H1R membranes), above. Transfected cells were selected using G418 ([…]), grown, and tested for histamine binding by the SPA described above. For total binding, cells were assayed in a SPA reaction described above containing 50 mM Tris-HCL (assay buffer), pH 7.6, 1 mg wheat germ agglutinin SPA beads (Amersham Pharmacia Biotech, #RPNQ0001), and 1 nM (3H)-n-alpha-methylhistamine (NEN, NET1027) (total volume per well=200 μl). Thioperimide was added to determine non-specific binding. Several clones were selected as positive for binding, and a single clone (H3R8) was used to prepare membranes for binding studies described above. Five micrograms of protein was used per well in the SPA receptor-binding assay.
To investigate the selectivity of the antagonists for the histamine receptors, a competitive binding assay described above was performed. […]

Test [3] deals with T3, H4R (human GPRv53 receptor) (Homo sapiens, UniProt Q9H3N8).
T3 construct: expressed in transfected cells; host or cells: HEK293 GPRv53 50 cells (whole-cell homogenate/lysate)
The test can be described thus: competitive binding assay, GPRv53 (H4R), (3H) Histamine. As for the experimental part:
cDNA for the human GPRv53 receptor was cloned and expressed as described in (A. Preparation H1R membranes), above. Transfected cells were selected, tested for histamine binding, and selected. HEK293 GPRv53 50 cells were grown to confluency in DMEM/F12 (Gibco) supplemented with 5% FBS and 500 ug/ml G418 and washed with Delbecco's PBS (Gibco) and harvested by scraping. Whole cells were homogenized with a Polytron tissuemizer in binding buffer, 50 mM Tris pH 7.5. Cell lysates, 50 ug, were incubated in 96 well dishes with 3 nM (3H) Histamine and compounds in binding buffer for 2 hours at room temperature. Lysates were filtered through glass fiber filters (Perkin Elmer) with a Tomtec cell harvester. Filters were counted with melt-on scintillator sheets (Perkin Elmer) in a Wallac Trilux 1450 Microbeta Scintillation counter for 5 minutes.
(§1) To investigate the selectivity of the antagonists for the histamine receptors, a competitive binding assay described above was performed. […] Until the present invention, most known H3R antagonists also bound H4R.

The target of test [4] is T4, H1R (human histamine 1 receptor) (Homo sapiens, UniProt P35367).
T4 construct: expressed in transfected cells
The test can be described thus: competitive SPA binding assay, H1R, 3H-pyrilamine. The note with it: selectivity panel. On the procedure: cDNA for the human histamine 1 receptor (H1R) was cloned into a mammalian expression vector containing the CMV promoter (pcDNA3.1(+), Invitogen) and transfected into HEK293 cells using the FuGENE Tranfection Reagent (Roche Diagnostics Corporation). Transfected cells were selected using G418 (500 μ/ml). Colonies that survived selection were grown and tested for histamine binding to cells grown in 96-well dishes using a scintillation proximity assay (SPA) based radioligand binding assay. Briefly, cells, representing individual selected clones, were grown as confluent monolayers in 96-well dishes (Costar Clear Bottom Plates, #3632) by seeding wells with 25,000 cells and growing for 48 hours (37° C., 5% CO2). Growth media was removed and wells were rinsed two times with PBS (minus Ca^2+ or Mg^2+). For total binding, cells were assayed in a SPA reaction containing 50 mM Tris-HCL (assay buffer), pH 7.6, 1 mg wheat germ agglutinin SPA beads (Amersham Pharmacia Biotech, #RPNQ0001), and 0.8 nM ^3H-pyrilamine (Net-594, NEN) (total volume per well ˜200 μl). Astemizole (10 μM, Sigma #A6424) was added to appropriate wells to determine non-specific binding. Plates were covered with FasCal and incubated at room temperature for 120 minutes. […] Plates were counted in a Wallac Trilux 1450 Microbeta scintillation counter. […]

Test [5] deals with T5, H2 (human histamine 2 receptor) (Homo sapiens, UniProt P25021).
T5 construct: expressed in transfected cells
As to the kind of experiment: competitive SPA binding assay, H2R, 3H-tiotidine. The note with it: selectivity panel. As for the experimental part: cDNA for the human histamine 2 receptor was cloned, expressed and transfected into HEK 293 cells as described above. Histamine binding to cells was assayed by SPA described above. For total binding, cells were assayed in a SPA reaction containing 50 mM Tris-HCl (assay buffer), pH 7.6, 1 mg wheat germ agglutinin SPA beads (Amersham Pharmacia Biotech, #RPNQ0001), and 6.2 nM ^3H-tiotidine (Net-688, NEN) (total volume per well=200 μl). Cimetidine (10 μM, Sigma #C4522) was added to appropriate wells to determine non-specific binding.
Several clones were selected as positive for binding, and a single clone (H2R10) was used to prepare membranes for binding studies. Five micrograms of protein was used per well in the SPA receptor-binding assay.
as §1

A value given as a limit tells only on which side of the number the result lay.

T1 sequence (Q9Y5N1 whole entry): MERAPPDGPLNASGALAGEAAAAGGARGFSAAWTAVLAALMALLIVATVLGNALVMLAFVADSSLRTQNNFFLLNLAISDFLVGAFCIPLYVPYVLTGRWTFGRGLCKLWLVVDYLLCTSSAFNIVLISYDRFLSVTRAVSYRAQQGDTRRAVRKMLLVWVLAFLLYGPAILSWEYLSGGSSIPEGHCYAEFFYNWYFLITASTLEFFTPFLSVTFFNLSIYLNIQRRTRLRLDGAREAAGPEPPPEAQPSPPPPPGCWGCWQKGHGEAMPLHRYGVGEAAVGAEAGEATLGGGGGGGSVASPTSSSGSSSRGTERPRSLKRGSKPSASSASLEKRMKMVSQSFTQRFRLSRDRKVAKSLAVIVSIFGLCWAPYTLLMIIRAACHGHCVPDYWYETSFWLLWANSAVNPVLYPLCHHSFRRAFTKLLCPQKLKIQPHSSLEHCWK
T3 sequence (Q9H3N8 whole entry): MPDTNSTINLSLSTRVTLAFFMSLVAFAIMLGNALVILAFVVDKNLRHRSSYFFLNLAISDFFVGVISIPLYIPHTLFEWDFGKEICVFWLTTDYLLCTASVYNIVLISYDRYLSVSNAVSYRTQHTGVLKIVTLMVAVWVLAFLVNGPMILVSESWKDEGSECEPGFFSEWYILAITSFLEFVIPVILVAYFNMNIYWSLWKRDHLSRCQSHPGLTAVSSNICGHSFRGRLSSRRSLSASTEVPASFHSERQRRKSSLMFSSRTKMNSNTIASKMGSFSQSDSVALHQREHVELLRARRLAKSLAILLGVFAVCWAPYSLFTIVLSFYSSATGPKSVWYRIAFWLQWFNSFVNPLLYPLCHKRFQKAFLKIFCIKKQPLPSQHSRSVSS
T2 sequence (Q9Y5N1 whole entry): as the sequence (Q9Y5N1 whole entry) above
T4 sequence (P35367 whole entry): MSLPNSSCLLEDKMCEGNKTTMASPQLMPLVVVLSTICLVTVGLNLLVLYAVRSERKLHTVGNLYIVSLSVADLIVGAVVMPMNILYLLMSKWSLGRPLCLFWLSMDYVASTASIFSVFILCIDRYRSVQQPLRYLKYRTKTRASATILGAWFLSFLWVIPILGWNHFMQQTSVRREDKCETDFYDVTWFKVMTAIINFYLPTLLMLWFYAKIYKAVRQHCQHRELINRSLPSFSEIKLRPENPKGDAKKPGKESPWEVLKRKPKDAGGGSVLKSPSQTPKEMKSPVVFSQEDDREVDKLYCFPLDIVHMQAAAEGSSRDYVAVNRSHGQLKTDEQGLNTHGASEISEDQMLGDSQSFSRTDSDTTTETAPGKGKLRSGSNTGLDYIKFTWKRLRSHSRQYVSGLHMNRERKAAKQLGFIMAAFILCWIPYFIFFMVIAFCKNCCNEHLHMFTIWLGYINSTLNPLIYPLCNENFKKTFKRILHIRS
T5 sequence (P25021 whole entry): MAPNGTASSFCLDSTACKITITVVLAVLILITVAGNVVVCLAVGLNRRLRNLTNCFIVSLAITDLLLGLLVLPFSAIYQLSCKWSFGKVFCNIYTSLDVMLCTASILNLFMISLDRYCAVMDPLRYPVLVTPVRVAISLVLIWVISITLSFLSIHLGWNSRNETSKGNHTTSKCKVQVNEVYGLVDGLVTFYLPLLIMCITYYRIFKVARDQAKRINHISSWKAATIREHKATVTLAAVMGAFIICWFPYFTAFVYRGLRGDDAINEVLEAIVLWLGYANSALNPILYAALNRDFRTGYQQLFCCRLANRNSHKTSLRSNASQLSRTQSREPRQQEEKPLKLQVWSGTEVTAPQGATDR

By Ki is commonly meant the equilibrium dissociation constant of an inhibitor or competing ligand from its target. Turning to `O=C(c1ccc2c(c1)CCC(N1CCOCC1)C2)N1CCC[C@H]1CN1CCCC1` (mixture of isomers) [Example 6, (6-Morpholin-4-yl-5,6,7,8-tetrahydro-naphthalen-2-yl)-(2-pyrrolidin-1-ylmethyl-pyrrolidin-1-yl)-methanone], in test [1], the Ki was found to be 7.8 nM.

Take `O=C(c1ccc2c(c1)CCCC2)N1CCC[C@H]1CN1CCCC1` [Example 15, (S)-(2-Pyrrolidin-1-ylmethyl-pyrrolidin-1-yl)-(5,6,7,8-tetrahydro-naphthalen-2-yl)-methanone]: the Ki in test [2] is 1.8 nM; in test [3] (selectivity panel), at least 20000 nM; in test [4] it was at least 20000 nM; in test [5], at least 17800 nM. Moreover, the “inhibition of binding to H4R compared to H3R” value in test [3] (statement in words) is on record as “did not inhibit binding H4R”.

For `O=C(c1ccc2c(c1)CCC(N1CCCC1)C2)N1CCC[C@H]1CN1CCCC1` (mixture of isomers) [Example 3, (2-Pyrrolidin-1-ylmethyl-pyrrolidin-1-yl)-(6-pyrrolidin-1-yl-5,6,7,8-tetrahydro-naphthalen-2-yl)-methanone], the Ki in test [1] was found to be 1.5 nM.
